Entries after “also recorded” stand apart in the source; their conditions may differ.
Assays:
PAECs [1] = experiment: Cellular apoptosis, caspase-3/7 activity (Caspase-Glo 3/7) in PAECs; assay type: cell-based, human
Experimental: (§1) The hypoxia chamber (modular incubator chamber) was obtained from Billups-Rothenberg Inc. (Del Mar, Cali) and placed in regulated CO2 incubator at 37° C.
(§2) Cellular apoptosis: Caspase-3/7 activity was quantified using the Caspase-Glo 3/7 Assay (Promega), according to manufacturer's instructions. Caspase-3/7 activity was normalized to total protein content determined by BCA method (Thermo Fisher Scientific).

PAECs [2] = experiment: BrdU growth (proliferation) assay in PAECs; assay type: cell-based, human
Experimental: BrdU growth assay: Cell proliferation was assayed relative to day 0 using a BrdU Cell Proliferation Assay Kit (#6813, Cell Signaling) according to the manufacturer's protocol after incubation for 2 h with BrdU.

PASMCs = experiment: Apoptosis (caspase 3/7) in PASMCs; assay type: cell-based, human; details: IL-6/sIL-6R + hypoxia
Experimental: (§3) BRD2889 (1 uM) vs. vehicle control were added, as indicated, and placed into a hypoxia chamber for 24 h. The hypoxia chamber (modular incubator chamber) was obtained from Billups-Rothenberg Inc. (Del Mar, Cali) and placed in regulated CO2 incubator at 37° C.
as §2

[3] = tested on: glutathione S-transferase (GST); experiment: Measurement of GST activity in PAECs; assay type: cell-based, human
Experimental: as §3

mitochondrial Complex 1 [4] = experiment: Mitochondrial Complex 1 activity in PAECs; assay type: cell-based, human
Experimental: (§4) Measurement of mitochondrial complex activities: Complex 1 activity of isolated mitochondria were measured using Complex 1 Enzyme Activity Microplate assay kit (Abcam, ab109721) according to the manufacturer's protocol. These enzymes were captured within the wells of the microplate coated by the corresponding complex enzyme antibody, and activities were detected colorimetrically.

PAECs [5] = experiment: RT-qPCR gene expression in PAECs; assay type: cell-based, human
Experimental: as §1
RT-qPCR analysis: Cells were lysis in 1 ml of QiaZol reagent (Qiagen). Total RNA content was extracted using the RNeasy kit (Qiagen), according to the manufacturer's instructions. Total RNA concentration was determined using a BioTek Synergy multimode plate reader. Messenger RNAs were reverse transcribed to generate cDNA using the Multiscript RT kit (Thermo Fisher Scientific). cDNA for specific gene targets was amplified and quantified via fluorescently-labeled Taqman primer sets and Taqman fast advanced master mix (Thermo Fisher Scientific) using an Applied Biosystems QuantStudio 6 Flex Real-Time PCR System.

ISCU [6] = experiment: Immunoblot and densitometry of ISCU and GSTP1 in PAECs; assay type: cell-based, human
Experimental: as §3
(§5) Immunoblot and densitometry: Cells were lysed in RIPA buffer (Sigma) along with 1× protease inhibitor cocktail (Sigma). Protein lysate was resolved by gradient 4%-15% SDS-PAGE gels and transferred onto a 0.2 μm PVDF membrane (Bio-Rad). Membranes were blocked in 5% non-fat milk in 1×PBST buffer for one hour at room temperature. Later, they were incubated in the presence of the primary antibody overnight at 4° C., and then appropriate HRP-conjugated secondary antibodies (Life Technologies). The following antibodies were used: human LGALS8 (AF1305, RnD Systems), mouse/rat Lgals8 ([…], Abcam), pSTAT1 (ab29045, Abcam) and STAT1 (ab47425, Abcam), GSTP1 (ab153949, Abcam), ISCU (14812-1-AP, Pointech), Glutathione (ab19534, Abcam), HIF2A (NB100-122, Novous), α-Tubulin (CP06, Millipore sigma), and ACTB (sc-47778, Santa Cruz). The immunoreactive bands were visualized with the Chemidoc XRS+ system (Bio-Rad) using SuperSignal West Femto chemiluminescent substrates (Thermo Fisher Scientific). The images were later quantified using AlphaEaseFC software (Alpha Innotech).

[7] = tested on: glutathione S-transferase (GST); experiment: Measurement of GST activity in PASMCs; assay type: cell-based, human; details: IL-6/sIL-6R + hypoxia, BRD2889 1 uM
Experimental: as §3

mitochondrial Complex 1 [8] = experiment: Mitochondrial Complex 1 activity in PASMCs; assay type: cell-based, human; details: IL-6/sIL-6R + hypoxia
Experimental: as §3, §4

ISCU [9] = experiment: Immunoblot and densitometry of ISCU and GSTP1 in PASMCs; assay type: cell-based, human; details: IL-6/sIL-6R + hypoxia, BRD2889 1 uM
Experimental: as §3, §5

[10] = tested on: monocrotaline-exposed pulmonary arterial hypertension rats; experiment: Monocrotaline (MCT) pulmonary arterial hypertension rat model, dosing Days 12-26
Experimental: Measurement of GST activity: The GST activity from lung tissue and PAECs was assayed using GST assay kit (Cayman, MI, USA) per the manufacturer's instructions.

ISCU [11] = experiment: Immunoprecipitation/immunoblot of glutathionylated ISCU in PAECs; assay type: cell-based, human; parameters: dose or concentration left out as unconfirmed; details: hypoxic PAECs, BRD2889 (24 h)
Experimental: as §5, with “The immunoreactive bands were visualized with the Chemidoc XRS+ system (Bio-Rad) using SuperSignal West Femto chemiluminescent substrates (Thermo Fisher Scientific).” left out
Immunoprecipitation: PAECs were transfected with the indicated combinations of siRNAs by Lipofectamine 2000 (Thermo Fisher Scientific) according to the manufacturer's instructions and/or treated with BRD2889 ([…], 24 h). […] After extensive washing, the immunoprecipitated proteins were analyzed by immunoblotting with the indicated antibodies.

[12] = hypoxic PAECs with siRNA knockdown of ISCU
[13] = PAECs, IL-6/sIL-6R + hypoxia, BRD2889 1 uM
[14] = I-BET762 30 mg/kg daily i.p. or BRD2889 5 mg/kg i.p. every 5 days, Days 12-26

COc1ccc(C#CC2CCCN(C(=O)/C=C/c3cc(OC)c(OC)c(OC)c3)C2=O)cc1 (stereo not shown) [BRD2889, (E)-3-((4-methoxyphenyl)ethynyl)-1-(3-(3,4,5-trimethoxyphenyl)acryloyl)piperidin-2-one]
apoptosis (caspase 3/7 activity) (PAECs [1]; PAECs, IL-6/sIL-6R + hypoxia): reduced apoptosis; also recorded: reversing | apoptosis (caspase 3/7 activity) (PAECs [1]; [12]): did not reverse the hypoxic increase | apoptosis (caspase 3/7 activity) (PAECs [1]; hypoxic PAECs, BRD2889): reversed the increase in apoptosis; also recorded: reversed hypoxic alterations | proliferation (BrdU incorporation) (PAECs [2]; PAECs, IL-6/sIL-6R + hypoxia): increased proliferation; also recorded: reversing | proliferation (BrdU incorporation) (PAECs [2]; hypoxic PAECs): reversed the decrease; also recorded: reversed hypoxic alterations | proliferation (BrdU incorporation) (PAECs [2]; [12]): did not reverse the hypoxia-induced decrease | apoptosis (PASMCs): only subtly changed | GST activity [3, 13]: reversed the increase in GSTP1 activity; also recorded: reversed the IL-6/R+ hypoxia-mediated increase | GST enzyme activity ([3]; hypoxic PAECs): reduced the hypoxic increase in GST enzyme activity; also recorded: reversed hypoxic alterations | mitochondrial Complex 1 activity (mitochondrial Complex 1 [4]; PAECs, IL-6/sIL-6R + hypoxia): partially rescued mitochondrial Complex 1 activity; also recorded: reversing the IL-6/R+hypoxia-mediated decrease | mitochondrial Complex 1 activity (mitochondrial Complex 1 [4]; hypoxic PAECs): reversed the decrease; also recorded: reversed hypoxic alterations | mitochondrial Complex 1 activity (mitochondrial Complex 1 [4]; [12]): did not reverse the hypoxia-induced decrease | inflammatory gene transcripts (EDN1, VCAM1, ICAM1) (PAECs [5]; IL-6/sIL-6R + hypoxia): normalized this upregulation | ISCU transcript (PAECs [5]; hypoxia 48 hrs, BRD2889 5 uM): fully reversing the hypoxic decrease of ISCU; also recorded: rescued by BRD2889 | expression of C43 genes MID2, BANP, AGTRAP (PAECs [5]; hypoxia 48 hrs, BRD2889 5 uM): unaffected in hypoxia by BRD2889 | mTOR transcript (PAECs [5]; hypoxia 48 hrs, BRD2889 5 uM): partially reversing the decrease of mTOR; also recorded: rescued by BRD2889 | GSTP1 expression (ISCU [6]; [13]): without altering GSTP1 expression | ISCU expression (immunoblot) (ISCU [6]; [13]): reversed the decrease in ISCU expression; also recorded: reversed the IL-6/R+hypoxic decrease | GSTP1 expression (ISCU [6]; hypoxic PAECs): did not affect GSTP1 expression | ISCU protein levels (ISCU [6]; hypoxic PAECs): reversed hypoxia-dependent reduction of ISCU protein levels; also recorded: ISCU levels were increased; also recorded: reversed hypoxic alterations; also recorded: reversed these findings; also recorded: also reversed the hypoxia-induced reduction of ISCU | GST activity [7]: failed to rescue ISCU or alter GST activity; also recorded: did not affect | mitochondrial Complex 1 activity (mitochondrial Complex 1 [8]): did not affect | GSTP1 protein expression (ISCU [9]): did not affect | ISCU protein (ISCU [9]): failed to rescue ISCU | endothelial ISCU (immunofluorescence) ([10]; BRD2889 5 mg/kg i.p. every 5 days): increased | lung GST activity ([10]; BRD2889 5 mg/kg i.p. every 5 days, 5 mg/kg): reduced; also recorded: decreased | transcript levels of injury markers of liver (Got, Gpt1), kidney (Cst3, Lcn2), intestines (Ldha), tissue toxicity ([10]; BRD2889 vs VC, RT-qPCR): no indication of overt tissue toxicities | Fulton index (RV/LV+S) [10, 14]: reducing; also recorded: reduced | arteriolar muscularization (α-SMA) [10, 14]: reducing; also recorded: reduced | cleaved caspase-3 (CC-3), endothelial apoptosis [10, 14]: reducing; also recorded: decreased | right ventricular systolic pressure (RVSP) [10, 14]: reducing; also recorded: reduced | aortic blood pressure (mean arterial pressure, MAP) ([10]; vs vehicle control): without significant alterations | heart rate ([10]; vs vehicle control): without significant alterations | ISCU glutathionylation (α-GSH immunoblot after α-ISCU pulldown) (ISCU [11]): converse reduction of glutathionylation; also recorded: reversed these findings; also recorded: reversal of the hypoxic induction of ISCU glutathionylation

Reference: US20250288572A1, “COMPOSITIONS AND METHODS FOR TREATING PULMONARY VASCULAR DISEASE” (UNIVERSITY OF PITTSBURGH-OF THE COMMONWEALTH SYSTEM OF …, priority 2022, published 2025)
